Our source for the K2, IC50 and K1 values is ChEMBL document CHEMBL1133053, “(S)-Thiirancarboxylic acid as a reactive building block for a new class of cysteine protease inhibitors” (Bioorg Med Chem Lett, 2000).

The target of assay [1] is T1, Papain (Carica papaya) (UniProt P00784).
T1 sequence (whole entry): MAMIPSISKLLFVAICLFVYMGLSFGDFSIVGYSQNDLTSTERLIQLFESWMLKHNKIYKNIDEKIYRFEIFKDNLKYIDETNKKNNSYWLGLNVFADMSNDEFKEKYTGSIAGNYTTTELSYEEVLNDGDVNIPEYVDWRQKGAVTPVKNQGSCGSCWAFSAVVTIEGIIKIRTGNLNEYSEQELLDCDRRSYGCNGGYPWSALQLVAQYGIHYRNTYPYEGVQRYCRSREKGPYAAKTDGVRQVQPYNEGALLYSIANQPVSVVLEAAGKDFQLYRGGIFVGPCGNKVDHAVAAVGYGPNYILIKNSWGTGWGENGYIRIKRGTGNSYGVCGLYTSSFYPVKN
Put plainly: The second order rate constant of inactivation was reported.

The target of assay [2] is T1, Papain (Carica papaya). Put plainly: The second order rate constant of inactivation was reported at pH 4.
For assay [3], the target named is T2, Papain (Carica papaya, UniProt P00784).
T2 sequence (P00784 whole entry): T1 sequence (whole entry)
The assay is described as follows: The compound was evaluated for inhibition of papain.

Assay [4] deals with T1, Papain (Carica papaya). The assay is described as follows: The first order rate constant of inactivation was reported.

`CCOC(=O)[C@@H]1N[C@H]1C(=O)O` showed a K2 in assay [1] of 58.8 M⁻¹ s⁻¹.

As for `CCOC(=O)[C@H]1N[C@@H]1C(=O)O`, the K2 came out at 78.2 M⁻¹ s⁻¹ in assay [1] and 413 M⁻¹ s⁻¹ in assay [2].

Regarding `CCOC(=O)[C@H]1O[C@@H]1C(=O)OCC`, in assay [1], the K2 is 1.73 M⁻¹ s⁻¹.

In turn, `CCOC(=O)[C@@H]1O[C@H]1C(=O)OCC` showed a K2 in assay [1] of 1.68 M⁻¹ s⁻¹.

Broadly, the IC50 is the midpoint of a concentration-inhibition curve. Low values mean greater potency, high ones weaker potency. In turn, `COC(=O)[C@H]1CS1` returned a 50% inhibitory concentration (IC50) in assay [3] of 200 nM. This molecule also returned a K1 in assay [4] of 0.2 µM.

In the case of `CCOC(=O)C1OC1C(=O)OCC` (stereo unspecified), inhibition in assay [3] was half-maximal at 207 nM (IC50).

`O=C(O)[C@H]1CS1` gave a K2 in assay [1] of 3.7 M⁻¹ s⁻¹.

In assay [3], `CCOC(=O)C1OC1C(=O)O` (stereo unspecified) gave a half-inhibitory concentration (IC50) of 10.5 nM.

Turning to `CCOC(=O)[C@@H]1N[C@H]1C(=O)OCC`, the K2 in assay [1] was determined as 0.2 M⁻¹ s⁻¹.

Consider `CCOC(=O)[C@H]1CS1`, for which, in assay [3], half-maximal inhibition (IC50) required 570 nM. Further, the K1 in assay [4] came to 0.57 µM.

Turning to `CCOC(=O)[C@H]1N[C@@H]1C(=O)OCC`, the K2 in assay [1] was determined as 0.183 M⁻¹ s⁻¹; in assay [2] it was 1.02 M⁻¹ s⁻¹.

As to `O=C(O)[C@@H]1CN1`, the K2 in assay [1] is 17 M⁻¹ s⁻¹.
